Test results reported in BindingDB's records for doi:10.1021/jm501395b (University of Strasburg, 2015).

Key:
[1] = biological target: T1, Oxytocin receptor (Homo sapiens, UniProt P30559); assay: Binding affinity to SNAP-tagged oxytocin receptor (unknown origin) expressed in HEK293 cells assessed as association constant after 5 to 120 mins by TR-FRET assay; details: read-out: kon (M-1-s-1)
T1 sequence (P30559 whole entry): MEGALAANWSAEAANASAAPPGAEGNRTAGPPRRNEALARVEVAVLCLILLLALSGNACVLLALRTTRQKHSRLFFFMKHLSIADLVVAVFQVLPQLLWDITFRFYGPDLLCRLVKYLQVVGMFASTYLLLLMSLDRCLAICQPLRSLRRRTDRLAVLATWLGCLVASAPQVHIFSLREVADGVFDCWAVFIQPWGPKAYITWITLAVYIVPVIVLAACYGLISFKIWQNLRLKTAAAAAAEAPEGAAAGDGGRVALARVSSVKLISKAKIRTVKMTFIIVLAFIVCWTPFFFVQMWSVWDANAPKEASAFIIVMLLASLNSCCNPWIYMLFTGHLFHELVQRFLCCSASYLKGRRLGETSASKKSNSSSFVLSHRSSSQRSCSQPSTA

[2] = biological target: T1, Oxytocin receptor; assay: Binding affinity to SNAP-tagged oxytocin receptor (unknown origin) expressed in HEK293 cells assessed as dissociation constant after 5 to 120 mins by TR-FRET assay

| kon [1] | koff [2] | Structure (SMILES) |
| --- | --- | --- |
| 59500 M⁻¹ s⁻¹ | 0.000315 s⁻¹ | COc1ccc(-n2c(COCCOCCOCCOCCNC(=O)CCCCCNC(=O)c3ccc(-c4c5ccc(=O)cc-5oc5cc(O)ccc45)c(C(=O)O)c3)nnc2N2CC(Oc3ccc(F)cc3Cl)C2)cn1 |
| 67200 M⁻¹ s⁻¹ | 0.000182 s⁻¹ | CCN1\C(=C/C=C/C=C/C2=[N+](CC)c3cc(S(=O)(=O)[O-])ccc3C2(C)C)C(C)(CCCC(=O)NCCOCCOCCOCCOCc2nnc(N3CC(Oc4ccc(F)cc4Cl)C3)n2-c2ccc(OC)nc2)c2cc(S(=O)(=O)O)ccc21 (centres undefined) |
